Test results published in ChEMBL document CHEMBL1156044, “Novel pyridine derivatives as potent and selective CB2 cannabinoid receptor agonists” (Bioorg Med Chem Lett, 2009).
pEC50, pKi: −log10 of the molar value.

Assays:
Cannabinoid receptor 2 [1] = target: T1, Cannabinoid receptor 2 (Homo sapiens, UniProt P34972); assay: Displacement of [3H][…] from human cloned CB2 receptor after 60 mins by scintillation spectroscopy
Cannabinoid receptor 2 [2] = target: T2, Cannabinoid receptor 2 (Rattus norvegicus, UniProt Q9QZN9); assay: Agonist activity at CB2 receptor in rat cerebellar membrane assessed as WIN-55212-2-stimulated [35S]GTPgammaS binding after 6 hrs by scintillation spectrometry; format: functional, cell membranes, Cerebellum
T2 sequence (Q9QZN9 whole entry): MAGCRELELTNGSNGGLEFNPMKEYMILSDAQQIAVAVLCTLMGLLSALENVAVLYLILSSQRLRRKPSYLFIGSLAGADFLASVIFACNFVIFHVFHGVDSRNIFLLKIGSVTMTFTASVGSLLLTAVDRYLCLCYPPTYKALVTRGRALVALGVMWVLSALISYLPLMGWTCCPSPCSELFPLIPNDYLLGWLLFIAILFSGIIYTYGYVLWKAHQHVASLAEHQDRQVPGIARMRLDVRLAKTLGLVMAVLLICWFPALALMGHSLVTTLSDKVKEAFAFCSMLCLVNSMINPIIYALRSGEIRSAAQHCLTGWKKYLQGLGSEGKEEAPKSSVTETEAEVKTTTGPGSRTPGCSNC

Cannabinoid receptor 1 [3] = target: T3, Cannabinoid receptor 1 (Homo sapiens, UniProt P21554); assay: Inhibition of [3H][…] binding to human cloned CB1 receptor at 10 uM after 120 mins by scintillation spectroscopy
T3 sequence (P21554 whole entry): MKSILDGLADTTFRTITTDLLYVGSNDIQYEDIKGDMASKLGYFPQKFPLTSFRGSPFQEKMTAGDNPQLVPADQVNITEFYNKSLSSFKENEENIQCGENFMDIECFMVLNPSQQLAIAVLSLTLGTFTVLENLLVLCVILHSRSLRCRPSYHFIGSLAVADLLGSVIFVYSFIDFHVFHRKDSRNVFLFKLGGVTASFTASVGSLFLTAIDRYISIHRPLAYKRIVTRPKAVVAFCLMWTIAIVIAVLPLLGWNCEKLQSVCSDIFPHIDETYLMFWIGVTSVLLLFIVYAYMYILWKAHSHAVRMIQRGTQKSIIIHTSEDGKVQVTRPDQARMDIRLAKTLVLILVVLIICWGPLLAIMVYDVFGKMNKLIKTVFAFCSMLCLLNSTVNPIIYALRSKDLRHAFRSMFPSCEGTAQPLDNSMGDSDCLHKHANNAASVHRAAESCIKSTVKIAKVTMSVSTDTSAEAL

[4] = Metabolic stability in rat liver microsomes assessed as compound remaining at […] after 30 mins; format: ADME, Microsome; settings: read-out: Stability
Homo sapiens = organism: Homo sapiens; assay: Selectivity ratio of Ki for human cloned CB1 receptor to Ki for human cloned CB2 receptor
[5] = Metabolic stability in human liver microsomes assessed as compound remaining at […] after 30 mins; format: ADME, Microsome; settings: read-out: Stability
Cannabinoid receptor 1 [6] = target: T3, Cannabinoid receptor 1; assay: Displacement of [3H][…] from human cloned CB1 receptor after 120 mins by scintillation spectroscopy
Cannabinoid receptor 2 [7] = target: T1, Cannabinoid receptor 2; assay: Inhibition of [3H][…] binding to human cloned CB2 receptor at 10 uM after 60 mins by scintillation spectroscopy
[8] = Tmax in Sprague-Dawley rat at 10 mg/kg, po administered as single dose; format: ADME, organism-based; set-up: dose 10 mg/kg, route oral; settings: in vivo
Canis familiaris [9] = assay: Oral bioavailability in Beagle dog at 10 mg/kg, po administered as single dose; format: ADME, organism-based, Canis lupus familiaris; settings: in vivo
[10] = AUC (0 to infinity) in Sprague-Dawley rat at 1 mg/kg, iv administered as single dose; format: ADME, organism-based; set-up: time infinity, dose 1 mg/kg, route intravenous; settings: plasma
[11] = Oral bioavailability in Sprague-Dawley rat at 10 mg/kg administered as single dose; format: ADME, organism-based; settings: in vivo
[12] = Systemic plasma clearance in Beagle dog at 1 mg/kg, iv administered as single dose; format: ADME, organism-based, Canis lupus familiaris; set-up: dose 1 mg/kg, route intravenous
Canis familiaris [13] = assay: AUC (0 to infinity) in Beagle dog at 10 mg/kg, po administered as single dose; format: ADME, organism-based, Canis lupus familiaris, Plasma; set-up: time infinity, dose 10 mg/kg, route oral; settings: in vivo
[14] = Systemic plasma clearance in Sprague-Dawley rat at 1 mg/kg, iv administered as single dose; format: ADME, organism-based; set-up: dose 1 mg/kg, route intravenous
[15] = Half life in Beagle dog at 1 mg/kg, iv administered as single dose; format: ADME, organism-based, Canis lupus familiaris; set-up: dose 1 mg/kg, route intravenous; settings: in vivo
Rattus norvegicus = assay: Antiallodynic activity against neuropathic pain in L5 spinal nerve ligated rat model assessed as reduction of allodynia at 100 mg/kg, po administered 9 days after surgery relative to control; format: functional; set-up: scale not given: the % may be the effect or the level left
[16] = Half life in Beagle dog at 10 mg/kg, po administered as single dose; format: ADME, organism-based, Canis lupus familiaris; set-up: dose 10 mg/kg, route oral; settings: in vivo
[17] = Cmax in Sprague-Dawley rat at 10 mg/kg, po administered as single dose; format: ADME, organism-based; set-up: dose 10 mg/kg, route oral; settings: in vivo
[18] = Cmax in Beagle dog at 10 mg/kg, po administered as single dose; format: ADME, organism-based, Canis lupus familiaris; set-up: dose 10 mg/kg, route oral; settings: in vivo
[19] = Half life in Sprague-Dawley rat at 10 mg/kg, po administered as single dose; format: ADME, organism-based; set-up: dose 10 mg/kg, route oral; settings: in vivo
[20] = Half life in Sprague-Dawley rat at 1 mg/kg, iv administered as single dose; format: ADME, organism-based; set-up: dose 1 mg/kg, route intravenous; settings: in vivo
[21] = Volume of distribution at steady state in Beagle dog at 1 mg/kg, iv administered as single dose; format: ADME, organism-based, Canis lupus familiaris; set-up: dose 1 mg/kg, route intravenous; settings: in vivo, read-out: Vdss
[22] = Tmax in Beagle dog at 10 mg/kg, po administered as single dose; format: ADME, organism-based, Canis lupus familiaris; set-up: dose 10 mg/kg, route oral; settings: in vivo
[23] = Volume of distribution at steady state in Sprague-Dawley rat at 1 mg/kg, iv administered as single dose; format: ADME, organism-based; set-up: dose 1 mg/kg, route intravenous; settings: in vivo, read-out: Vdss
[24] = AUC (0 to infinity) in Sprague-Dawley rat at 10 mg/kg, po administered as single dose; format: ADME, organism-based; set-up: time infinity, dose 10 mg/kg, route oral; settings: plasma
Canis familiaris [25] = assay: Area under curve (0 to infinity) in Beagle dog at 1 mg/kg, iv administered as single dose; format: ADME, organism-based, Canis lupus familiaris; set-up: time infinity, dose 1 mg/kg, route intravenous; settings: in vivo

T1 sequence (P34972 whole entry): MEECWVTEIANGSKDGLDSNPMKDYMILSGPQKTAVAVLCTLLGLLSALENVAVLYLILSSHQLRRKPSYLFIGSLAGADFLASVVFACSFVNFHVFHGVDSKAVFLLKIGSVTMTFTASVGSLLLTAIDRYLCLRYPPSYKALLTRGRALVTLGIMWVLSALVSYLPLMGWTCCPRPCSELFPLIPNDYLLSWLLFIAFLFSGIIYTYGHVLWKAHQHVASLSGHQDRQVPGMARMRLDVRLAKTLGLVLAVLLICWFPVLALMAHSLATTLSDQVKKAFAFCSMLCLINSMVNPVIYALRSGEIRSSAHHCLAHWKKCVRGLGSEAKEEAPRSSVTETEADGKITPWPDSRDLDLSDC

SMILES | pKi (Cannabinoid receptor 2 [1]) | pEC50 (Cannabinoid receptor 2 [2]) | inhibition (Cannabinoid receptor 1 [3]) | remaining at 0.5 h [4] | Ratio Ki (Homo sapiens) | remaining at 0.5 h [5] | pKi (Cannabinoid receptor 1 [6]) | other results
CCC1(C(=O)Nc2cc(CN3CCOCC3)c(C)cn2)CC1 | 7.20 | 7.21 | 25% |  |  |  |  | 
Cc1cnc(NC(=O)C2(C)CCCCC2C)cc1CN1CCOCC1 (centres undefined) | 8.72 | 8.55 |  | 0% | 1300 | 1% | 5.60 | 
CCC(C)(C)C(=O)Nc1ccc(C)c(CN2CCOCC2)c1 |  |  | 4% | 2.2% |  |  |  | 
Cc1cnc(NC(=O)C(C)(C)C)cc1CN1CCOCC1 | 7.09 | 7.15 | 37% |  |  |  |  | 
CCC(C)(C)C(=O)Nc1cnc(C)c(CN2CCOCC2)c1 |  |  | 4% |  |  |  |  | inhibition (Cannabinoid receptor 2 [7]): 46%
CCC(C)(C)C(=O)Nc1cc(CN2CCOCC2)c(C#N)cn1 | 7.00 | 6.70 | 11% |  |  |  |  | 
CCC1(C(=O)Nc2cc(CN3CCOCC3)c(C)cn2)CCCC1 | 7.89 | 7.89 |  |  | 85 | 12% | 5.96 | 
CCC(C)(C)C(=O)Nc1cc(CN2CCOCC2)c(N)cn1 | 6.06 |  | 10% |  |  |  |  | 
CCC(C)(C)C(=O)Nc1cc(CN2CCOCC2)cc(C)n1 | 7.17 | 6.59 | 0% |  |  |  |  | 
CCc1cnc(NC(=O)C(C)(C)CC)cc1CN1CCOCC1 | 8.10 | 8.02 |  | 29% | 550 | 34% | 5.37 | 
CCC1(C(=O)Nc2cc(CN3CCOCC3)c(C)cn2)CCCCC1 | 8.15 | 8.06 | 36% | 0% |  | 0% |  | 
CCC(C)(C)C(=O)Nc1ccc(C)c(CN2CCOCC2)n1 | 5.74 |  | 28% |  |  |  |  | 
CCC1(C(=O)Nc2cc(CN3CCOCC3)c(C)cn2)CCC1 | 7.35 | 6.85 | 13% | 48% |  | 51% |  | 
CCC(C)(C)C(=O)Nc1cc(CN2CCOCC2)c(C)cn1 | 7.62 | 7.39 |  | 43% | 160 | 64% | 5.42 | Tmax [8]: 2 h; F (Canis familiaris [9]): 29%; AUC(0-inf) [10]: 158 ng·h/mL; bioavailability [11]: 57%; clearance [12]: 15 mL/min/kg; AUC (Canis familiaris [13]): 977 ng·h/mL; clearance [14]: 96.7 mL/min/kg; half-life [15]: 1.4 h; Activity (Rattus norvegicus): 271%; half-life [16]: 1.1 h; Cmax [17]: 185 ng/mL; Cmax [18]: 535 ng/mL; half-life [19]: 2.1 h; half-life [20]: 0.5 h; Vd [21]: 0.6 L/kg; Tmax [22]: 0.5 h; Vd [23]: 3.5 L/kg; AUC(0-inf) [24]: 893 ng·h/mL; AUC (Canis familiaris [25]): 1127 ng·h/mL
CCCC(C)(C)C(=O)Nc1cc(CN2CCOCC2)c(C)cn1 | 8.28 | 8.39 |  |  | 330 | 15% | 5.74 | 
CCC(C)(C)C(=O)Nc1cc(CN2CCOCC2)c(C)cc1C |  |  | 18% | 68% |  |  |  | 
